{"source": "paper PMC11012124", "about": "“Synthesis of Novel Triazine-Based Chalcones and 8,9-dihydro-7H-pyrimido[4,5-b][1,4]diazepines as Potential Leads in the Search of Anticancer, Antibacterial and Antifungal Agents” (International Journal of Molecular Sciences, 2024)", "key": {"[1]": {"test_system": "60 cancer cell lines", "test": "NCI-60 one-dose screen (10 μM)", "type": "cell-based", "conditions": "Homo sapiens; one dose of 10 μM, mean over 60 cancer cell lines; read-out: Mean Growth Percent (MGP)", "description": "Additionally, the mean of the growth percentages (MGP) of each compound against all the 60 cancer cell lines is also reported, which is used as one of the selection criteria to continue with tests at five concentration doses."}, "[2]": {"test_system": "HL-60(TB)", "test": "cells", "conditions": "Homo sapiens, HL-60, 48 h"}, "[3]": {"test_system": "MOLT-4", "test": "cells", "conditions": "Homo sapiens, MOLT-4, 48 h"}, "[4]": {"test_system": "RPMI-8226", "test": "cells", "conditions": "Homo sapiens, RPMI-8226, 48 h"}, "[5]": {"test_system": "A549/ATCC", "test": "cells", "conditions": "Homo sapiens, A549, 48 h"}, "[6]": {"test_system": "HOP-92", "test": "cells", "conditions": "Homo sapiens, HOP-92, 48 h"}, "[7]": {"test_system": "NCI-H226", "test": "cells", "conditions": "Homo sapiens, NCI-H226, 48 h"}, "[8]": {"test_system": "NCI-H23", "test": "cells", "conditions": "Homo sapiens, NCI-H23, 48 h"}, "[9]": {"test_system": "NCI-H460", "test": "cells", "conditions": "Homo sapiens, NCI-H460, 48 h"}, "[10]": {"test_system": "NCI-H522", "test": "cells", "conditions": "Homo sapiens, NCI-H522, 48 h"}, "[11]": {"test_system": "COLO 205", "test": "cells", "conditions": "Homo sapiens, COLO 205, 48 h"}, "[12]": {"test_system": "HCT-116", "test": "cells", "conditions": "Homo sapiens, HCT-116, 48 h"}, "[13]": {"test_system": "HCT-15", "test": "cells", "conditions": "Homo sapiens, HCT-15, 48 h"}, "[14]": {"test_system": "HT29", "test": "cells", "conditions": "Homo sapiens, HT-29, 48 h"}, "[15]": {"test_system": "KM12", "test": "cells", "conditions": "Homo sapiens, KM12, 48 h"}, "[16]": {"test_system": "SF-295", "test": "cells", "conditions": "Homo sapiens, SF-295, 48 h"}, "[17]": {"test_system": "SF-539", "test": "cells", "conditions": "Homo sapiens, SF-539, 48 h"}, "[18]": {"test_system": "SNB-75", "test": "cells", "conditions": "Homo sapiens, SNB-75, 48 h"}, "[19]": {"test_system": "U251", "test": "cells", "conditions": "Homo sapiens, U-251, 48 h"}, "[20]": {"test_system": "LOX IMVI", "test": "cells", "conditions": "Homo sapiens, 48 h"}, "[21]": {"test_system": "M14", "test": "cells", "conditions": "Homo sapiens, M14, 48 h"}, "[22]": {"test_system": "SK-MEL-2", "test": "cells", "conditions": "Homo sapiens, SK-MEL-2, 48 h"}, "[23]": {"test_system": "SK-MEL-5", "test": "cells", "conditions": "Homo sapiens, SK-MEL-5, 48 h"}, "[24]": {"test_system": "UACC-257", "test": "cells", "conditions": "Homo sapiens, UACC-257, 48 h"}, "[25]": {"test_system": "OVCAR-4", "test": "cells", "conditions": "Homo sapiens, OVCAR-4, 48 h, read-out: LC50"}, "[26]": {"test_system": "OVCAR-5", "test": "cells", "conditions": "Homo sapiens, OVCAR-5, 48 h"}, "[27]": {"test_system": "SK-OV-3", "test": "cells", "conditions": "Homo sapiens, SK-OV-3, 48 h"}, "[28]": {"test_system": "786-0", "test": "cells", "conditions": "Homo sapiens, 786-0, 48 h"}, "[29]": {"test_system": "A498", "test": "cells", "conditions": "Homo sapiens, A498, 48 h"}, "[30]": {"test_system": "SN12C", "test": "cells", "conditions": "Homo sapiens, 48 h"}, "[31]": {"test_system": "TK-10", "test": "cells", "conditions": "Homo sapiens, TK-10, 48 h"}, "[32]": {"test_system": "UO-31", "test": "cells", "conditions": "Homo sapiens, UO-31, 48 h"}, "[33]": {"test_system": "DU-145", "test": "cells", "conditions": "Homo sapiens, DU-145, 48 h"}, "[34]": {"test_system": "MCF7", "test": "cells", "conditions": "Homo sapiens, MCF7, 48 h"}, "[35]": {"test_system": "MDA-MB-231/ATCC", "test": "cells", "conditions": "Homo sapiens, MDA-MB-231, 48 h"}, "[36]": {"test_system": "T-47D", "test": "cells", "conditions": "Homo sapiens, T47D, 48 h"}, "[37]": {"test_system": "MDA-MB-468", "test": "cells", "conditions": "Homo sapiens, MDA-MB-468, 48 h"}}}
{"smiles": "Cc1ccc(C2CC(c3ccc(S(=O)(=O)NCCNc4nc(Nc5ccc(F)cc5)nc(N(C)C)n4)cc3)=Nc3c(N)nc(N)nc3N2)cc1", "note": "(stereo not drawn) [31b]", "values": [{"measurement": "activity at 10 µM", "setting": "[1]", "value": 48.4, "unit": "%"}, {"measurement": "GI50", "setting": "[2]", "value": 2.94, "unit": "µM"}, {"measurement": "CC50", "setting": "[2]; read-out: LC50", "value": 20.2, "unit": "µM"}, {"measurement": "GI50", "setting": "[3]", "value": 2.2, "unit": "µM"}, {"measurement": "CC50", "setting": "[3]; read-out: LC50", "value": 7.53, "unit": "µM"}, {"measurement": "GI50", "setting": "[4]", "value": 2.94, "unit": "µM"}, {"measurement": "CC50", "setting": "[4]; read-out: LC50", "value": "> 100", "unit": "µM"}, {"measurement": "GI50", "setting": "[5]", "value": "> 100", "unit": "µM"}, {"measurement": "CC50", "setting": "[5]; read-out: LC50", "value": "> 100", "unit": "µM"}, {"measurement": "GI50", "setting": "[6]", "value": 2.54, "unit": "µM"}, {"measurement": "CC50", "setting": "[6]; read-out: LC50", "value": 21, "unit": "µM"}, {"measurement": "GI50", "setting": "[7]", "value": "> 100", "unit": "µM"}, {"measurement": "CC50", "setting": "[7]; read-out: LC50", "value": "> 100", "unit": "µM"}, {"measurement": "GI50", "setting": "[8]", "value": 78.8, "unit": "µM"}, {"measurement": "CC50", "setting": "[8]; read-out: LC50", "value": "> 100", "unit": "µM"}, {"measurement": "GI50", "setting": "[9]", "value": 4.76, "unit": "µM"}, {"measurement": "CC50", "setting": "[9]; read-out: LC50", "value": "> 100", "unit": "µM"}, {"measurement": "GI50", "setting": "[10]", "value": 21.3, "unit": "µM"}, {"measurement": "CC50", "setting": "[10]; read-out: LC50", "value": "> 100", "unit": "µM"}, {"measurement": "GI50", "setting": "[11]", "value": 11.5, "unit": "µM"}, {"measurement": "CC50", "setting": "[11]; read-out: LC50", "value": "> 100", "unit": "µM"}, {"measurement": "GI50", "setting": "[12]", "value": 3.81, "unit": "µM"}, {"measurement": "CC50", "setting": "[12]; read-out: LC50", "value": "> 100", "unit": "µM"}, {"measurement": "GI50", "setting": "[13]", "value": 4.95, "unit": "µM"}, {"measurement": "CC50", "setting": "[13]; read-out: LC50", "value": "> 100", "unit": "µM"}, {"measurement": "GI50", "setting": "[14]", "value": 2.27, "unit": "µM"}, {"measurement": "CC50", "setting": "[14]; read-out: LC50", "value": 4.65, "unit": "µM"}, {"measurement": "GI50", "setting": "[15]", "value": 4.56, "unit": "µM"}, {"measurement": "CC50", "setting": "[15]; read-out: LC50", "value": "> 100", "unit": "µM"}, {"measurement": "GI50", "setting": "[16]", "value": 6.6, "unit": "µM"}, {"measurement": "CC50", "setting": "[16]; read-out: LC50", "value": "> 100", "unit": "µM"}, {"measurement": "GI50", "setting": "[17]", "value": 3.29, "unit": "µM"}, {"measurement": "CC50", "setting": "[17]; read-out: LC50, SF-539, 48 h", "value": 78.9, "unit": "µM"}, {"measurement": "GI50", "setting": "[18]", "value": "> 100", "unit": "µM"}, {"measurement": "CC50", "setting": "[18]; read-out: LC50", "value": "> 100", "unit": "µM"}, {"measurement": "GI50", "setting": "[19]; U251, 48 h", "value": 7.08, "unit": "µM"}, {"measurement": "CC50", "setting": "[19]; read-out: LC50", "value": "> 100", "unit": "µM"}, {"measurement": "GI50", "setting": "[20]", "value": 2.09, "unit": "µM"}, {"measurement": "CC50", "setting": "[20]; read-out: LC50, LOX IMVI, 48 h", "value": 5.11, "unit": "µM"}, {"measurement": "GI50", "setting": "[21]", "value": 4.56, "unit": "µM"}, {"measurement": "CC50", "setting": "[21]; read-out: LC50", "value": "> 100", "unit": "µM"}, {"measurement": "GI50", "setting": "[22]", "value": 11.2, "unit": "µM"}, {"measurement": "CC50", "setting": "[22]; read-out: LC50", "value": 77.7, "unit": "µM"}, {"measurement": "GI50", "setting": "[23]", "value": 4.98, "unit": "µM"}, {"measurement": "CC50", "setting": "[23]; read-out: LC50", "value": 20.6, "unit": "µM"}, {"measurement": "GI50", "setting": "[24]", "value": 26, "unit": "µM"}, {"measurement": "CC50", "setting": "[24]; read-out: LC50", "value": "> 100", "unit": "µM"}, {"measurement": "CC50", "setting": "[25]", "value": "> 100", "unit": "µM"}, {"measurement": "GI50", "setting": "[26]", "value": "> 100", "unit": "µM"}, {"measurement": "CC50", "setting": "[26]; read-out: LC50", "value": "> 100", "unit": "µM"}, {"measurement": "GI50", "setting": "[27]", "value": "> 100", "unit": "µM"}, {"measurement": "CC50", "setting": "[27]; read-out: LC50", "value": "> 100", "unit": "µM"}, {"measurement": "GI50", "setting": "[28]", "value": 7.06, "unit": "µM"}, {"measurement": "CC50", "setting": "[28]; read-out: LC50", "value": "> 100", "unit": "µM"}, {"measurement": "GI50", "setting": "[29]", "value": "> 100", "unit": "µM"}, {"measurement": "CC50", "setting": "[29]; read-out: LC50", "value": "> 100", "unit": "µM"}, {"measurement": "GI50", "setting": "[30]", "value": "> 100", "unit": "µM"}, {"measurement": "CC50", "setting": "[30]; read-out: LC50", "value": "> 100", "unit": "µM"}, {"measurement": "GI50", "setting": "[31]", "value": "> 100", "unit": "µM"}, {"measurement": "CC50", "setting": "[31]; read-out: LC50", "value": "> 100", "unit": "µM"}, {"measurement": "GI50", "setting": "[32]", "value": "> 100", "unit": "µM"}, {"measurement": "CC50", "setting": "[32]; read-out: LC50", "value": "> 100", "unit": "µM"}, {"measurement": "GI50", "setting": "[33]", "value": "> 100", "unit": "µM"}, {"measurement": "CC50", "setting": "[33]; read-out: LC50", "value": "> 100", "unit": "µM"}, {"measurement": "GI50", "setting": "[34]", "value": 3.08, "unit": "µM"}, {"measurement": "CC50", "setting": "[34]; read-out: LC50", "value": "> 100", "unit": "µM"}, {"measurement": "GI50", "setting": "[35]", "value": 3.86, "unit": "µM"}, {"measurement": "CC50", "setting": "[35]; read-out: LC50", "value": "> 100", "unit": "µM"}, {"measurement": "GI50", "setting": "[36]", "value": 8.75, "unit": "µM"}, {"measurement": "CC50", "setting": "[36]; read-out: LC50", "value": "> 100", "unit": "µM"}, {"measurement": "GI50", "setting": "[37]", "value": 2.72, "unit": "µM"}, {"measurement": "CC50", "setting": "[37]; read-out: LC50", "value": 8.52, "unit": "µM"}]}
